From ChEMBL document CHEMBL3872239, “Studies relating to the synthesis, enzymatic reduction and cytotoxicity of a series of nitroaromatic prodrugs” (Bioorg Med Chem Lett, 2016)

How the values were obtained:
[1] = Cytotoxicity against Chinese hamster DT7 cells expressing human NQO1 assessed as reduction in cell viability after 3 days by SRB assay; assay type: functional, cell-based, Cricetulus griseus
[2] = Prodrug activation assessed as Escherichia coli NR-mediated compound reduction by measuring specific enzyme activity at 100 uM measured every 20 mins by HPLC based UV-Vis method
[3] = Cytotoxicity against Chinese hamster 186/6 cells expressing rat NQO1 assessed as reduction in cell viability after 3 days by SRB assay; assay type: functional, cell-based, Cricetulus griseus
[4] = target: T1, NAD(P)H dehydrogenase [quinone] 1 (Homo sapiens, UniProt P15559); test: Prodrug activation assessed as human NQO1-mediated compound reduction by measuring specific enzyme activity at 100 uM measured every 20 mins by HPLC based UV-Vis method
[5] = Cytotoxicity against Chinese hamster F179 transformed cells assessed as reduction in cell viability after 3 days by SRB assay; assay type: toxicity, cell-based, Cricetulus griseus
[6] = Prodrug activation assessed as Escherichia coli NR-mediated compound reduction by measuring specific enzyme activity at 100 uM measured every 20 mins by HPLC based UV-vis method relative to CB1954
[7] = Cytotoxicity against Chinese hamster T116 cells expressing Escherichia coli Nitroreductase assessed as reduction in cell viability after 3 days by SRB assay; assay type: functional, Cricetulus griseus
[8] = target: T1, NAD(P)H dehydrogenase [quinone] 1; test: Prodrug activation assessed as human NQO1-mediated compound reduction by measuring specific enzyme activity at 100 uM measured every 20 mins by HPLC based UV-Vis method relative to CB1954
[9] = target: T1, NAD(P)H dehydrogenase [quinone] 1; test: Drug metabolism assessed as human NQO1-mediated compound reduction by measuring specific enzyme activity at 100 uM measured every 20 mins by HPLC based UV-Vis method; assay type: ADME
[10] = Drug metabolism assessed as Escherichia coli NR-mediated compound reduction by measuring specific enzyme activity at 100 uM measured every 20 mins by HPLC based UV-Vis method; assay type: ADME

T1 sequence (P15559 whole entry): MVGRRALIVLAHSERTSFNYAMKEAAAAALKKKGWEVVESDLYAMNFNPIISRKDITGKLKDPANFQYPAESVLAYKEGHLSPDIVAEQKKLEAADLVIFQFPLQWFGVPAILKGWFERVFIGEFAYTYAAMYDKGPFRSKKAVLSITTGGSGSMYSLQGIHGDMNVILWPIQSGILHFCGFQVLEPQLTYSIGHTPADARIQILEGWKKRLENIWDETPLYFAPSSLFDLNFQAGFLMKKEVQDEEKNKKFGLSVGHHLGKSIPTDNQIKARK

Structure (SMILES) | Activity [2] [µmol/min/mg] | Activity [4] [µmol/min/mg] | fold change (FC) [6] | fold change (FC) [8] | IC50 [1] [µM] | IC50 [3] [µM] | IC50 [5] [µM] | IC50 [7] [µM] | Activity [9] [µmol/min/mg] | Activity [10] [µmol/min/mg]
O=[N+]([O-])c1ccc(N2Cc3ccccc3CC2CCl)cc1 (stereo unspecified) | < 0.01 | < 0.0001 | < 0.001 | < 0.01 | 2.8 | 2.9 | 3.3 | 3.1 |  | 
O=[N+]([O-])c1ccc(N2Cc3ccccc3CC2CCl)cc1C(F)(F)F (stereo unspecified) | 0.106 | 0.012 | 0.057 | 1.936 | 5.9 | 5.8 | 7.3 | 2.9 |  | 
NC(=O)c1cc(N2CC2)c([N+](=O)[O-])cc1[N+](=O)[O-] [TRETAZICAR] |  |  |  |  | 1.5 | 0.05 | 196 | 0.03 | 0.0062 | 1.86

Further lines, with some results ahead:

Activity [2] [µmol/min/mg] | Activity [4] [µmol/min/mg] | fold change (FC) [6] | fold change (FC) [8] | Structure (SMILES) | IC50 [1] [µM] | IC50 [3] [µM] | IC50 [5] [µM] | IC50 [7] [µM] | Activity [9] [µmol/min/mg] | Activity [10] [µmol/min/mg]
0.254 | 0.0033 | 0.137 | 0.532 | O=[N+]([O-])c1ccc(N2Cc3ccccc3CC2CCl)c([N+](=O)[O-])c1 (stereo unspecified) | 43.1 | 36.6 | 49 | 1.2 |  | 
< 0.01 | 0.0177 | < 0.001 | 2.855 | O=[N+]([O-])c1cc(C(F)(F)F)ccc1N1Cc2ccccc2CC1CCl (stereo unspecified) | 31.2 | 34.4 | 36.6 | 39.1 |  | 
0.166 | 0.027 | 0.089 | 4.355 | O=[N+]([O-])c1ccc(N2Cc3ccccc3CC2CCl)c(C(F)(F)F)c1 (stereo unspecified) | 27.5 | 22.6 | 37.8 | 3.1 |  | 
